Measurements from patent US20140045860A1, “SMALL MOLECULE INHIBITORS FOR TREATING PARASITIC INFECTIONS” (NEW YORK UNIVERSITY, priority 2011, published 2014).

Tested on: T. cruzi
Experiment: T. cruzi inhibition assay (beta-galactosidase T. cruzi co-cultured with NIH/3T3 host cells)
Format: cell-based
Details: Trypanosoma cruzi, NIH3T3; Table 2
Experimental: A high-throughput screen of small molecules was performed in duplicate in the recombinant Tulahuen strain of T. cruzi stably expressing a beta-galactosidase reporter gene. Trypomastogote-stage parasites were co-cultured with mouse fibroblast NIH/3T3 host cells, (Buckner F S, Verlinde C L, La Flamme A C, Van Voorhis W C. Efficient technique for screening drugs for activity against Trypanosoma cruzi using parasites expressing beta-galactosidase. Antimicrob Agents Chemother. 1996; 40(11): 2592-2597). Signal was normalized to neutral (DMSO) controls, and a 75% inhibition cutoff was used to define a hit. Compounds initially designated as hits were retested in dose in the primary assay to confirm their inhibitory activity. In parallel, compounds were tested in toxicity assays against NIH/3T3 host cells to determine if these compounds were cytotoxic to mammalian cells and thus, false positives. Compounds that reduced the viability of NIH/3T3 cells were excluded as viable hits. A subset of hits were then tested in a similar infection assay with the Tulahuen strain of T. cruzi infecting murine L-6 cells and the intracellular T. cruzi immunofluorescence assay described below.
1. T. cruzi Inhibition Assay
98% DMEM, Phenol Red, 2% FBS, and 1% PSG were mixed and filtered through a 0.2 microns membrane. The cells were kept at 4° C., then warmed up to 37° C. in a water bath before use.
Gal-Screen. Using a Gal-Screen base kit, Buffer B (Catalog no. T2361) was mixed with 1:25 substrate (Catalog no. T2359).
NIH/3T3 cells were cultivated in DMEM supplemented with 10% FBS and 1% PSG in T175 in 50 mL total of medium.
Parasite Culture: T. cruzi β-gal (Tc): T. cruzi β-gal were cultivated in DMEM supplemented with 2% FBS and 1% PSG in T175 flasks with vented caps in 50 mL total of medium.
2. Growth Inhibition Assay for HTS (384-Well Plates)
The medium was warmed up with 2% FBS/DMEM. The parasites were harvested in 50-mL tubes, and spun for 10 minutes at 2200 rpm. Approximately 15 mL of media was aspirated, and the samples were incubated for 3-5 h. The NIH/3T3 cells were trypsinized (refer to cell culture protocol). When the NIH/3T3 cells were detached, the cells were harvested in DMEM, 2% FBS, and 1% PSG, then counted using the Nexcelom cellometer. The cells were diluted to 166,667 cells/mL, then added to a flask and plated 5,000 cells/30 μL per well using a standard cassette multiwall drob Combi. The cells were incubated for 3 h, then T. cruzi cells were counted, diluted to 0.166 million cells/mL, and transferred to a 2-liter flask. Then, […] compounds/DMSO were pinned to each well with NIH/3T3 cells. Next, 30 μL/well of parasites (5000 T. cruzi) were added with a standard cassette multiwall drop Combi on slow speed, and incubated for 4 days (or a minimum of 90 h). Gal-Screen was prepared, 30 μL per well were dispensed in a 384-well plate, incubated for 60 minutes, and the luminescence was read using Envision (Perkin-Elmer) at 0.1 sec/well.

| SMILES | IC50 |
| --- | --- |
| C[C@@H]1CN([C@H](C)CO)C(=O)c2cccc(NC(=O)c3ccncc3)c2O[C@@H]1CN(C)Cc1ccc(Oc2ccccc2)cc1 [Compound 28] | 0.0426 µM |
| C[C@H]1CN([C@@H](C)CO)C(=O)c2cccc(NC(=O)c3ccncc3)c2O[C@H]1CN(C)Cc1ccc(Oc2ccccc2)cc1 [Compound 29] | < 0.0026 µM |
| C[C@@H]1CN([C@@H](C)CO)C(=O)c2cccc(NC(=O)c3ccncc3)c2O[C@H]1CN(C)Cc1ccc(Cl)cc1 [Compound 30] | < 0.0026 µM |
| C[C@@H]1CN([C@@H](C)CO)C(=O)c2cc(-c3ccncc3)cnc2O[C@H]1CN(C)Cc1ccc(Oc2ccccc2)cc1 [Compound 31] | 1.28 µM |
| C[C@@H]1CN([C@@H](C)CO)C(=O)c2cccc(NC(=O)c3ccncc3)c2O[C@@H]1CN(C)Cc1ccc(Oc2ccccc2)cc1 [Compound 32] | 0.00434 µM |
| C[C@@H]1CN([C@@H](C)CO)C(=O)c2cc(-c3cncnc3)cnc2O[C@H]1CN(C)Cc1ccc(Oc2ccccc2)cc1 [Compound 33] | > 10 µM |
| CC(C)N1C[C@@H](C)[C@H](CN(C)Cc2ccc(Oc3ccccc3)cc2)Oc2c(NC(=O)c3ccncc3)cccc2C1=O [Compound 34] | < 0.0026 µM |
| Cc1cc(C(=O)Nc2cccc3c2O[C@@H](CN(C)Cc2ccc(Oc4ccccc4)cc2)[C@H](C)CN([C@@H](C)CO)C3=O)n(C)n1 [Compound 35] | > 10 µM |
| C[C@@H]1CN([C@@H](C)CO)C(=O)c2cccc(NC(=O)c3ccncc3)c2O[C@H]1CN(C)Cc1ccc2c(c1)OCO2 [Compound 36] | 0.00659 µM |
| C[C@@H]1CN([C@H](C)CO)C(=O)c2cccc(NC(=O)c3ccncc3)c2O[C@H]1CN(C)Cc1ccccc1 [Compound 37] | 0.0153 µM |
| C[C@@H]1CN([C@@H](C)CO)C(=O)c2cccc(NC(=O)c3cnccn3)c2O[C@H]1CN(C)Cc1ccc(Oc2ccccc2)cc1 [Compound 38] | 1 µM |
| COc1ccc(CN(C)C[C@@H]2Oc3c(NC(=O)c4ccncc4)cccc3C(=O)N([C@@H](C)CO)C[C@H]2C)cc1 [Compound 39] | 0.011 µM |
| C[C@H]1CN([C@@H](C)CO)C(=O)c2cccc(NC(=O)c3ccncc3)c2O[C@@H]1CN(C)Cc1ccc(Oc2ccccc2)cc1 [Compound 40] | < 0.0026 µM |
| C[C@@H]1CN([C@H](C)CO)C(=O)c2cccc(NC(=O)c3ccncc3)c2O[C@H]1CN(C)Cc1ccc(Oc2ccccc2)cc1 [Compound 41] | 0.000529 µM |
| C[C@@H]1CN([C@@H](C)CO)C(=O)c2cccc(NC(=O)c3ccncc3)c2O[C@H]1CN(C)CC1CCCCC1 [Compound 42] | 0.0421 µM |
| C[C@@H]1CN([C@@H](C)CO)C(=O)c2cc(-c3cccnc3)cnc2O[C@H]1CN(C)Cc1ccc(Oc2ccccc2)cc1 [Compound 43] | 9.27 µM |
